As a reminder, the Km is the concentration of substrate that gives half-maximal velocity.

Read-outs that look alike come from different tables or passages of the source. Marks after values point to notes of the source that are not given here.

Data on five compounds can be found in patent EP0059645A1, “Method and kit for identification of beta-lactamases” (NATIONAL RESEARCH DEVELOPMENT CORPORATION, priority 1981, dated 1982).

Series [1] concerns O=C(Cc1cccs1)N[C@@H]1C(=O)N2C(C(=O)O)=C(C=Cc3ccc([N+](=O)[O-])cc3[N+](=O)[O-])CS[C@H]12. In words: purified protein, by the assay type. The settings on record: pH 7.0; 37.0 °C.
Series [2] has the same test system. In words: purified protein, by the assay type. The settings on record: pH 7.0; 37.0 °C. The source holds these as a separate data set.
The target of series [3] is T1, Chromosomal, hyper-induced beta-lactamase enzyme (Escherichia coli, UniProt P00811). In words: Hydrolysis of nitrocefin by enzyme (Michaelis constant). The settings on record: read-out: Km (Nitrocefin); enzyme No. 9.
Series [4] addresses T2, OXA-2 (Escherichia coli, UniProt P0A1V9). The series is described as above. Conditions: read-out: Km (Nitrocefin); enzyme No. 6.
Series [5] has as its target T3, OXA-1 (Escherichia coli, UniProt P13661). Put plainly: Cleavage of chromogenic substrate by enzyme (PADAC example). Conditions: PADAC monitored at 570 nm; same enzyme preparation for nitrocefin.
The target of series [6] is T2, OXA-2. Put plainly: Competitive assay with nitrocefin (RSAI). Format: biochemical, E. coli R46. On the set-up: the beta-lactamase has to be extracted from the cells for the purpose of the present invention; made in house; host or cells: E. coli carrying R46 according to the earlier reading (crude cell extract).
Series [7] concerns the target T4, Chromosomal, induced beta-lactamase enzyme (Pseudomonas aeruginosa, UniProt P24735).
T4 construct: Normally, therefore, the beta-lactamase has to be extracted from the cells for the purpose of the present invention; endogenous in cells; host or cells: Pseudomonas aeruginosa 1937E grown with ampicillin
In words: Competitive assay with nitrocefin (RSAI). Format: biochemical, Ps.aerug. 1937E + ampicillin.

For series [8], the target named is OXA-3 (Pseudomonas aeruginosa, UniProt Q51429). In words: Competitive assay with nitrocefin (RSAI). Format: biochemical, E. coli R57B. Set-up: Normally, therefore, the beta-lactamase has to be extracted from the cells for the purpose of the present invention; endogenous in cells.
Series [9] deals with HMS-1. In words: Competitive assay with nitrocefin (RSAI). Format: biochemical, E. coli 1946.
Series [10] concerns the target PSE-4 (Pseudomonas aeruginosa, UniProt P16897). In words: Competitive assay with nitrocefin (RSAI). It counts as biochemical, Ps.aerug. 1559E. On the set-up: Normally, therefore, the beta-lactamase has to be extracted from the cells for the purpose of the present invention; endogenous in cells.
Series [11] relates to PSE-3. Put plainly: Competitive assay with nitrocefin (RSAI). Format: biochemical, Ps.aerug. 1920E.
Series [12] has as its target T3, OXA-1. In words: Competitive assay with nitrocefin (RSAI). It counts as biochemical, E. coli 1527E. On the set-up: the beta-lactamase has to be extracted from the cells for the purpose of the present invention; made in house; host or cells: E. coli 1527E according to the earlier reading (crude cell extract).
In series [13] the target is PSE-2 (Pseudomonas aeruginosa, UniProt P14489). In words: Competitive assay with nitrocefin (RSAI). Format: biochemical, Ps.aerug. 1973E. On the set-up: Normally, therefore, the beta-lactamase has to be extracted from the cells for the purpose of the present invention; endogenous in cells.
The target of series [14] is T5, Chromosomal, constitutive beta-lactamase enzyme (Enterobacter cloacae, UniProt P05364).
T5 construct: Normally, therefore, the beta-lactamase has to be extracted from the cells for the purpose of the present invention; endogenous in cells
Put plainly: Competitive assay with nitrocefin (RSAI). Format: biochemical, E. cloacae.

The target in series [15] is TEM-2 (Escherichia coli, UniProt P62593, Q37K). Put plainly: Competitive assay with nitrocefin (RSAI). Format: biochemical, E. coli 1725E.
For series [16], the system named is K1073. In words: Competitive assay with nitrocefin (RSAI). Format: biochemical, Klebsiella 1073.
Series [17] addresses PSE-1 (Pseudomonas aeruginosa, UniProt Q03170). In words: Competitive assay with nitrocefin (RSAI). It counts as biochemical, Ps.aerug. 1937E. Set-up: Normally, therefore, the beta-lactamase has to be extracted from the cells for the purpose of the present invention; endogenous in cells.
The target in series [18] is TEM-1 (Escherichia coli, UniProt P62593). In words: Competitive assay with nitrocefin (RSAI). It counts as biochemical, E. coli 2136E. Set-up: the beta-lactamase has to be extracted from the cells for the purpose of the present invention; made in house; host or cells: E. coli 2136E (plasmid-bearing strain; crude cell extract).
The target in series [19] is T1, Chromosomal, hyper-induced beta-lactamase enzyme. Put plainly: Competitive assay with nitrocefin (RSAI). Format: biochemical, E. coli SNU35. Set-up: Normally, therefore, the beta-lactamase has to be extracted from the cells for the purpose of the present invention; endogenous in cells; host or cells: E. coli SNU 35 (artificially produced strain).
In series [20] the test system is K17. In words: Competitive assay with nitrocefin (RSAI). It counts as biochemical, Klebsiella 17.
For series [21], the target named is SHV-1 (Escherichia coli, UniProt P0AD63). In words: Competitive assay with nitrocefin (RSAI). Format: biochemical, E. coli 2008E. On the set-up: the beta-lactamase has to be extracted from the cells for the purpose of the present invention; made in house; host or cells: E. coli 2008E (crude cell extract).
Series [22] deals with K10317. In words: Competitive assay with nitrocefin (RSAI). Format: biochemical, K.aerog. 10317.
Series [23] has as its system "unknown" (unidentified) beta-lactamase. Put plainly: Competitive assay with nitrocefin (RSAI) on an unidentified beta-lactamase. Conditions: extract by the method of Example 6, assay as in Example 1; * = showed irreversible inhibition.
Series [24] concerns the target TEM-2 beta-lactamase (Escherichia coli, UniProt P62593, Q37K). It counts as biochemical, E. coli C9 RP4. Conditions: without pre-incubation; nitrocefin 50 micrograms/ml; after 4.5 minutes; 37°C.

In the case of (Escherichia coli), the Km in series [1] was determined as 16 µg/mL; in series [2], 9 µg/mL.

As to `O=C(Cc1cccs1)N[C@@H]1C(=O)N2C(C(=O)O)=C(C=Cc3ccc([N+](=O)[O-])cc3[N+](=O)[O-])CS[C@H]12` [Nitrocefin, 3-(2,4-dinitrostyryl)-(6R,7R)-7-(2-thienylacetamido)ceph-3-em-4-carboxylic acid], the figures for the Km in series [3] and in [4] were 34.8 µM and < 9.68 µM, respectively. For the same compound, in series [5], the “cleavage of chromogenic substrate by the enzyme” value is listed as “cleaved”.

With (Pseudomonas aeruginosa), in [1], the Michaelis-Menten constant (Km) was 28 µg/mL.

As to `CO[C@@]1(NC(=O)C(C(=O)O)c2ccc(O)cc2)C(=O)N2C(C(=O)O)=C(CSc3nnnn3C)CO[C@@H]21` (stereo partly drawn) [Moxalactam], the RSAI in [6] was 3*; in series [7] it was 0.006*; in series [7] (listed as moxalactam), 0.006; in series [8], 1*; in series [9] it was 0.3*; in series [10] it was 4.3. Moreover, the RSAI in series [11] is 7; in series [12] it was 4*; in series [13] it was 8.2; in series [14], 0.0001*; in series [14] (listed as moxalactam), 0.0001; in series [15] it was 60*. Also, the RSAI in series [16] is listed as >80; in [17] it was 3.5; in series [18], 40*; in series [19] it was 0.002*; in [19] (listed as moxalactam), 0.002; in [20], 3.5. Moreover, the RSAI in series [21] was 280; in [22] it was 60*; in [23], 0.0001.

On to `CC1(C)S[C@@H]2[C@H](NC(=O)[C@H](N)c3ccccc3)C(=O)N2[C@H]1C(=O)O` [Ampi-cillin, ampicillin], for which the RSAI in [6] amounted to 10; in series [7], 0.12; in series [8], 0.2; in series [24], 1.3; in series [9], 0.5; in series [10], 2.7. The RSAI came to 1.7 in series [11]; 4 in series [12]; 0.85 in [13]; 0.02 in series [14]; 2.6 in series [15]; 6.7 in series [16]. Further, the RSAI in series [17] is 0.4; in series [18], 4; in series [19], 0.03*; in series [20], 2.9; in series [21], 3; in series [22], 9.4.
